Source: patent US20090062294A1, “HETEROARYL-SUBSTITUTED UREA MODULATORS OF FATTY ACID AMIDE HYDROLASE” (priority 2007, published 2009)
Structures can show the parent of a compound that is named as a salt.

How the values were obtained:
rat FAAH = biological target: T1, rat FAAH (Rattus norvegicus, UniProt P97612); test: Assay Method 2: FAAH assay, 3H-anandamide hydrolysis in homogenate of SK-N-MC cells transfected with rat FAAH; format: biochemical; conditions: average of results, > = solubility limit or highest concentration tested
T1 sequence (P97612 1-579): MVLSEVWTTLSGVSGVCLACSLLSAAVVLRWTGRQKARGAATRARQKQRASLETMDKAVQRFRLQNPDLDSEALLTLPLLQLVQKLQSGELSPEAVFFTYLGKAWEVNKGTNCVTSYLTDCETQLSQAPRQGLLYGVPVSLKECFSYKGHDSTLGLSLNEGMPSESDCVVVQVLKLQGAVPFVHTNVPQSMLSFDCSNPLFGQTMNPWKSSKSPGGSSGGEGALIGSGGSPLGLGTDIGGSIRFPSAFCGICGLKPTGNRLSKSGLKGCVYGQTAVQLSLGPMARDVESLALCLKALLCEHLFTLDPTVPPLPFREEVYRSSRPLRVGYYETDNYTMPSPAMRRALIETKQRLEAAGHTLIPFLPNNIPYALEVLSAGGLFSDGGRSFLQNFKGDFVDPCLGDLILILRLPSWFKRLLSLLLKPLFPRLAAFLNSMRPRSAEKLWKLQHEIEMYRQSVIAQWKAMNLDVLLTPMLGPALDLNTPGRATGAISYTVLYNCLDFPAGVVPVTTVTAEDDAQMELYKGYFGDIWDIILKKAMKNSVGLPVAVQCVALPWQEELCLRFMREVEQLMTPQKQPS
Procedure: A. Transfection of Cells with Rat FAAH
(§1) A 10-cm tissue culture dish with a confluent monolayer of SK—N-MC cells was split 2 days (d) prior to transfection. Using sterile technique, the media was removed and the cells were detached from the dish by the addition of trypsin. One fifth of the cells were then placed onto a new 10-cm dish. Cells were grown in a 37° C. incubator with 5% CO2 in Minimal Essential Media Eagle with 10% Fetal Bovine Serum. After 2 d, cells were approximately 80% confluent. These cells were removed from the dish with trypsin and pelleted in a clinical centrifuge. The pellet was re-suspended in 400 μL complete media and transferred to an electroporation cuvette with a 0.4 cm gap between the electrodes. Supercoiled rat FAAH cDNA (1 μg) was added to the cells and mixed. The voltage for the electroporation was set at 0.25 kV, and the capacitance was set at 960 μF. After electroporation, the cells were diluted into complete media (10 mL) and plated onto four 10-cm dishes. Because of the variability in the efficiency of electroporation, four different concentrations of cells were plated. The ratios used were 1:20, 1:10, and 1:5, with the remainder of the cells being added to the fourth dish. The cells were allowed to recover for 24 h before adding the selection media (complete media with 600 μg/mL G418). After 10 d, dishes were analyzed for surviving colonies of cells. Dishes with well-isolated colonies were used. Cells from individual colonies were isolated and tested.
(§2) T84 frozen cell pellets or transfected SK—N-MC cells (contents of 1×15 cm culture dishes) were homogenized in 50 mL of FAAH assay buffer (125 mM Tris, 1 mM EDTA, 0.2% Glycerol, 0.02% Triton X-100, 0.4 mM Hepes, pH 9). The assay mixture consisted of 50 μL of the cell homogenate, 10 μL of the test compound, and 40 μL of anandamide [1-^3H-ethanolamine] (^3H-AEA, Perkin-Elmer, 10.3 Ci/mmol), which was added last, for a final tracer concentration of 80 nM. The reaction mixture was incubated at rt for 1 h. During the incubation, 96-well Multiscreen filter plates (catalog number MAFCNOB50; Millipore, Bedford, Mass., USA) were loaded with 25 μL of activated charcoal (Multiscreen column loader, catalog number MACL09625, Millipore) and washed once with 100 μL of MeOH. Also during the incubation, 96-well DYNEX MicroLite plates (catalog number NL510410) were loaded with 100 μL of MicroScint40 (catalog number 6013641, Packard Bioscience, Meriden, Conn., USA). After the 1 h incubation, 60 μL of the reaction mixture were transferred to the charcoal plates, which were then assembled on top of the DYNEX plates using Centrifuge Alignment Frames (catalog number MACF09604, Millipore). The unbound labeled ethanolamine was centrifuged through to the bottom plate (5 min at 2000 rpm), which was preloaded with the scintillant, as described above. The plates were sealed and left at rt for 1 h before counting on a Hewlett Packard TopCount.
(§3) Compounds were tested in free base, hydrochloride salt, and/or trifluoroacetic acid salt forms.

FAAH = biological target: T2, FAAH (Homo sapiens, UniProt O00519); test: Assay Method 1: FAAH assay, 3H-anandamide hydrolysis in homogenate of T84 cells or SK-N-MC cells transfected with human FAAH; format: biochemical; conditions: average of results, > = solubility limit or highest concentration tested
T2 sequence (O00519 1-579): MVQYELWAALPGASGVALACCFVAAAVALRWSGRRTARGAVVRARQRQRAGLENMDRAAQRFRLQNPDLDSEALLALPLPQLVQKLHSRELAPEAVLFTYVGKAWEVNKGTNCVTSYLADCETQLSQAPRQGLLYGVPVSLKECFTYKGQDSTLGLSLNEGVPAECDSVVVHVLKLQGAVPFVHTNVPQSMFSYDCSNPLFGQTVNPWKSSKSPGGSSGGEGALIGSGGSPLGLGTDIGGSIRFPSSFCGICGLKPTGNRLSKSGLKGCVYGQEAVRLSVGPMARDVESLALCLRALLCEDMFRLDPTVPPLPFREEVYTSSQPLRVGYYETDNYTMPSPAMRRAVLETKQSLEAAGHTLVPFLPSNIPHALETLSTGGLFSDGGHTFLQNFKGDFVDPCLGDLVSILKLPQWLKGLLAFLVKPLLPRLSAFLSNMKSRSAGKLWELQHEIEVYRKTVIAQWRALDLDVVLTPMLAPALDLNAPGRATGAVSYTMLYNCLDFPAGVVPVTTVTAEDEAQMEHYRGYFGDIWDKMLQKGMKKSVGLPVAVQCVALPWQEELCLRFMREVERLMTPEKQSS
Procedure: A. Transfection of Cells with Human FAAH
as §1, with “Supercoiled human” for “Supercoiled rat”
as §2, §3

Row | IC50 (rat FAAH) | IC50 (FAAH) | SMILES
1 | 250 nM | 935 nM | O=C(Nc1cccc2ncccc12)N1CCC(Cc2ccc3ccccc3c2)CC1 [Example 20, 4-Naphthalen-2-ylmethyl-piperidine-1-carboxylic acid quinolin-5-ylamide trifluoroacetic acid salt]
2 | 7 nM | 43 nM | O=C(Nc1noc2ccccc12)N1CCC(Cc2ccc3ccccc3c2)CC1 [Example 21, 4-Naphthalen-2-ylmethyl-piperidine-1-carboxylic acid benzo[d]isoxazol-3-ylamide]
3 | 77 nM | 108 nM | O=C(Nc1noc2ccccc12)N1CCC(Cc2ccc(F)cc2)CC1 [Example 22, 4-(4-Fluoro-benzyl)-piperidine-1-carboxylic acid benzo[d]isoxazol-3-ylamide]
4 | 1300 nM | 1300 nM | O=C(Nc1ccc(Cl)nn1)N1CCC(Cc2cccc(C(F)(F)F)c2)CC1 [Example 25, 4-(3-Trifluoromethyl-benzyl)-piperidine-1-carboxylic acid (6-chloro-pyridazin-3-yl)-amide]
5 | 1000 nM | 5000 nM | O=C(Nc1ccon1)N1CCC(Cc2cccc(C(F)(F)F)c2)CC1 [Example 26, 4-(3-Trifluoromethyl-benzyl)-piperidine-1-carboxylic acid isoxazol-3-ylamide]
6 | 47 nM | 77 nM | O=C(Nc1noc2ccccc12)N1CCC(Cc2cccc(C(F)(F)F)c2)CC1 [Example 27, 4-(3-Trifluoromethyl-benzyl)-piperidine-1-carboxylic acid benzo[d]isoxazol-3-ylamide]
7 | 17 nM | 95 nM | O=C(Nc1noc2ccccc12)N1CCN(Cc2cccc(Oc3ccc(F)c(C(F)(F)F)c3)c2)CC1 [Example 28, 4-[3-(4-Fluoro-3-trifluoromethyl-phenoxy)-benzyl]-piperazine-1-carboxylic acid benzo[d]isoxazol-3-ylamide trifluoroacetic acid salt]
8 | 23 nM | 16 nM | O=C(Nc1noc2ccccc12)N1CCN(Cc2cccc(Oc3cccc(OC(F)(F)F)c3)c2)CC1 [Example 29, 4-[3-(3-Trifluoromethoxy-phenoxy)-benzyl]-piperazine-1-carboxylic acid benzo[d]isoxazol-3-ylamide trifluoroacetic acid salt]
9 | 14 nM | 0.1 nM | O=C(Nc1noc2ccccc12)N1CCN(Cc2cccc(Oc3ccc(OC(F)(F)F)cc3)c2)CC1 [Example 30, 4-[3-(4-Trifluoromethoxy-phenoxy)-benzyl]-piperazine-1-carboxylic acid benzo[d]isoxazol-3-ylamide trifluoroacetic acid salt]
10 | 17 nM | 22 nM | O=C(Nc1noc2ccccc12)N1CCN(Cc2cccc(Oc3cccc(Br)c3)c2)CC1 [Example 31, 4-[3-(3-Bromo-phenoxy)-benzyl]-piperazine-1-carboxylic acid benzo[d]isoxazol-3-ylamide trifluoroacetic acid salt]
11 | 4 nM | 3 nM | O=C(Nc1noc2ccccc12)N1CCN(Cc2cccc(Oc3ccc(Br)cc3)c2)CC1 [Example 32, 4-[3-(4-Bromo-phenoxy)-benzyl]-piperazine-1-carboxylic acid benzo[d]isoxazol-3-ylamide trifluoroacetic acid salt]
12 | 30 nM | 52 nM | O=C(Nc1noc2ccccc12)N1CCN(Cc2cccc(Oc3ccc(F)c(F)c3)c2)CC1 [Example 33, 4-[3-(3,4-Difluoro-phenoxy)-benzyl]-piperazine-1-carboxylic acid benzo[d]isoxazol-3-ylamide]
13 | 190 nM | 152 nM | O=C(Nc1noc2ccccc12)N1CCN(Cc2cccc(Oc3cc(F)cc(F)c3)c2)CC1 [Example 34, 4-[3-(3,5-Difluoro-phenoxy)-benzyl]-piperazine-1-carboxylic acid benzo[d]isoxazol-3-ylamide trifluoroacetic acid salt]
